Data taken from PubChem BioAssay AID602339 (The Scripps Research Institute Molecular Screening Center, 2012).
Calls of active or inactive are those of the source. No rule for the calls is given here.

Key:
Test in all cases: off-target hydrolase engagement by SILAC proteomics – cell-based, ABPP-SILAC, LC-MS, selectivity assay for DAGLb inhibitor project, late-stage follow-up (AID 602339)
[1] = system: Ddhd1; conditions: mouse cells, active compounds read low
[2] = system: Lyplal1; conditions: mouse cells, active compounds read low
[3] = system: Fasn; conditions: mouse cells, active compounds read low
[4] = system: Bat5; conditions: mouse cells, active compounds read low
[5] = target: Diacylglycerol lipase-beta (Mus musculus) (UniProt Q91WC9); conditions: mouse cells, Daglb, active compounds read low
[6] = system: Pafah1b2; conditions: mouse cells, active compounds read low
[7] = system: Dpp9; conditions: mouse cells, active compounds read low
[8] = system: Parl; conditions: mouse cells, active compounds read low
[9] = system: Serhl; conditions: mouse cells, active compounds read low
[10] = system: Kiaa1363; conditions: mouse cells, active compounds read low
[11] = system: Pnpla7; conditions: mouse cells, active compounds read low
[12] = system: Pafah1b3; conditions: mouse cells, active compounds read low
[13] = system: Apeh; conditions: mouse cells, active compounds read low
[14] = system: Faah; conditions: mouse cells, active compounds read low
[15] = system: Scpep1; conditions: mouse cells, active compounds read low
[16] = system: Lactb; conditions: mouse cells, active compounds read low
[17] = target: Monoacylglycerol lipase ABHD6 (Mus musculus) (UniProt Q8R2Y0); conditions: mouse cells, active compounds read low
[18] = system: Ppt2; conditions: mouse cells, active compounds read low
[19] = system: D230012E17Rik; conditions: mouse cells, active compounds read low
[20] = system: Fam108c; conditions: mouse cells, active compounds read low
[21] = target: Palmitoyl-protein thioesterase ABHD10, mitochondrial (Mus musculus) (UniProt Q6PE15); conditions: mouse cells, active compounds read low
[22] = system: Lipe; conditions: mouse cells, active compounds read low
[23] = system: Abhd11; conditions: mouse cells, active compounds read low
[24] = system: Plat; conditions: mouse cells, active compounds read low
[25] = system: Iah1; conditions: mouse cells, active compounds read low
[26] = system: Abhd12; conditions: mouse cells, active compounds read low
[27] = system: Ache; conditions: mouse cells, active compounds read low
[28] = system: Pme1; conditions: mouse cells, active compounds read low
[29] = system: Pnpla8; conditions: mouse cells, active compounds read low
[30] = system: Lonp1; conditions: mouse cells, active compounds read low
[31] = target: Platelet-activating factor acetylhydrolase 2, cytoplasmic (Mus musculus) (UniProt Q8VDG7); conditions: mouse cells, Pafah2, active compounds read low
[32] = system: Prepl; conditions: mouse cells, active compounds read low
[33] = system: Qrsl1; conditions: mouse cells, active compounds read low
[34] = target: Prolyl endopeptidase (Mus musculus) (UniProt Q9QUR6); conditions: mouse cells, Prep, active compounds read low
[35] = target: Abhd4 (UniProt Q8VD66); conditions: mouse cells, active compounds read low
[36] = system: Esd; conditions: mouse cells, active compounds read low
[37] = system: Lypla2; conditions: mouse cells, active compounds read low
[38] = system: Lypla3; conditions: mouse cells, active compounds read low
[39] = target: Acyl-protein thioesterase 1 (Mus musculus) (UniProt P97823); conditions: mouse cells, Lypla1, active compounds read low
[40] = system: Acot2; conditions: mouse cells, active compounds read low
[41] = system: Tpp2; conditions: mouse cells, active compounds read low
[42] = system: Fam108b; conditions: mouse cells, active compounds read low
[43] = system: Pnpla6; conditions: mouse cells, active compounds read low
[44] = system: Dpp7; conditions: mouse cells, active compounds read low
[45] = system: Ctsa; conditions: mouse cells, active compounds read low
[46] = system: Htra2; conditions: mouse cells, active compounds read low

Acyl-protein thioesterase 1 (Mus musculus), sequence (P97823 whole entry, looked up): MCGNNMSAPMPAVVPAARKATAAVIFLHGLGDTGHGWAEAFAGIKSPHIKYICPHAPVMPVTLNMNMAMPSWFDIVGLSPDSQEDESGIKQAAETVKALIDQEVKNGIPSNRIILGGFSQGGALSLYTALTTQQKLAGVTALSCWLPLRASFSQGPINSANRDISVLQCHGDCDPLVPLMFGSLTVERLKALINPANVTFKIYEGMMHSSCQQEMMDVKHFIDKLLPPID
Diacylglycerol lipase-beta (Mus musculus), sequence (Q91WC9 whole entry, looked up): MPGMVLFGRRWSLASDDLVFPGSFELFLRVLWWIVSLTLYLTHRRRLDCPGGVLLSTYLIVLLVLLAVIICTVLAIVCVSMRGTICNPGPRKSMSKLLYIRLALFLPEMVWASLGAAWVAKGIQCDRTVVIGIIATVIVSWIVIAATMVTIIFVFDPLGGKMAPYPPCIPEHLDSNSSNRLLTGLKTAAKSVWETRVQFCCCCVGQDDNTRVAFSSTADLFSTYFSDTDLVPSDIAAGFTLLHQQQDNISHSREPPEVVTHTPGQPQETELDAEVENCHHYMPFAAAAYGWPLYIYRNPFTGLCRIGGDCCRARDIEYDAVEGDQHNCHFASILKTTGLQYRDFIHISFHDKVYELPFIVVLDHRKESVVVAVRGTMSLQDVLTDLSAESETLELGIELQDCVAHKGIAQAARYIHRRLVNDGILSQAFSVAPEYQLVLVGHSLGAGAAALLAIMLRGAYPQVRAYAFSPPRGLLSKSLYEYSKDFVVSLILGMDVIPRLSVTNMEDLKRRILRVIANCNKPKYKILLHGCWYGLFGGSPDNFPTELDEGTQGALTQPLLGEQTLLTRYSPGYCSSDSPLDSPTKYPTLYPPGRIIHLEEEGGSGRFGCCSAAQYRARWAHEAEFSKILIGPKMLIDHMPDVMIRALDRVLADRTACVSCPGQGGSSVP
Abhd4, sequence (Q8VD66 whole entry, looked up): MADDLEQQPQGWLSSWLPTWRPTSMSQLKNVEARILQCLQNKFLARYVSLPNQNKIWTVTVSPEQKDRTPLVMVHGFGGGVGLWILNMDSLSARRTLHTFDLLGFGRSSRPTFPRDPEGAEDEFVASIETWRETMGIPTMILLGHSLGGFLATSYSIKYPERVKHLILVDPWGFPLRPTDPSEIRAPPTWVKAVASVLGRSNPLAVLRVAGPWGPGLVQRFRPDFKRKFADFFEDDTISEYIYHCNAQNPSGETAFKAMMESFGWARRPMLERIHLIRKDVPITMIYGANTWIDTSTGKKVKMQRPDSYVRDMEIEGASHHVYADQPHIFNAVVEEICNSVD
Monoacylglycerol lipase ABHD6 (Mus musculus), sequence (Q8R2Y0 whole entry, looked up): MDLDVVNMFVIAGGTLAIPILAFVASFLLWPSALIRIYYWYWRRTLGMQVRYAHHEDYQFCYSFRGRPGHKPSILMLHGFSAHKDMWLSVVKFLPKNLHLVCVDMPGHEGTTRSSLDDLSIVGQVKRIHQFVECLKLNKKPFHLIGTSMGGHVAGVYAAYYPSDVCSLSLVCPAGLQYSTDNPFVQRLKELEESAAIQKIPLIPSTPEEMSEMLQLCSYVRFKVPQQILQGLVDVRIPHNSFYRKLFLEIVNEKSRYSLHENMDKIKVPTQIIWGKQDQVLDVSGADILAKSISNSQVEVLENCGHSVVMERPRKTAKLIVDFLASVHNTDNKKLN
Palmitoyl-protein thioesterase ABHD10, mitochondrial (Mus musculus), sequence (Q6PE15 whole entry, looked up): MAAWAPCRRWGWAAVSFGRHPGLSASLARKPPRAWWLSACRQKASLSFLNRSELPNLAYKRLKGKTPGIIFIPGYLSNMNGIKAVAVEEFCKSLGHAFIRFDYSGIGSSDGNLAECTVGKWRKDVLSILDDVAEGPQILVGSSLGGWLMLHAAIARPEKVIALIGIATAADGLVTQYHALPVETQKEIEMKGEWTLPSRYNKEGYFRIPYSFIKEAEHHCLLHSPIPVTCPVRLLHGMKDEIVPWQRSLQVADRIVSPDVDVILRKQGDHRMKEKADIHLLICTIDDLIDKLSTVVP
Prolyl endopeptidase (Mus musculus), sequence (Q9QUR6 whole entry, looked up): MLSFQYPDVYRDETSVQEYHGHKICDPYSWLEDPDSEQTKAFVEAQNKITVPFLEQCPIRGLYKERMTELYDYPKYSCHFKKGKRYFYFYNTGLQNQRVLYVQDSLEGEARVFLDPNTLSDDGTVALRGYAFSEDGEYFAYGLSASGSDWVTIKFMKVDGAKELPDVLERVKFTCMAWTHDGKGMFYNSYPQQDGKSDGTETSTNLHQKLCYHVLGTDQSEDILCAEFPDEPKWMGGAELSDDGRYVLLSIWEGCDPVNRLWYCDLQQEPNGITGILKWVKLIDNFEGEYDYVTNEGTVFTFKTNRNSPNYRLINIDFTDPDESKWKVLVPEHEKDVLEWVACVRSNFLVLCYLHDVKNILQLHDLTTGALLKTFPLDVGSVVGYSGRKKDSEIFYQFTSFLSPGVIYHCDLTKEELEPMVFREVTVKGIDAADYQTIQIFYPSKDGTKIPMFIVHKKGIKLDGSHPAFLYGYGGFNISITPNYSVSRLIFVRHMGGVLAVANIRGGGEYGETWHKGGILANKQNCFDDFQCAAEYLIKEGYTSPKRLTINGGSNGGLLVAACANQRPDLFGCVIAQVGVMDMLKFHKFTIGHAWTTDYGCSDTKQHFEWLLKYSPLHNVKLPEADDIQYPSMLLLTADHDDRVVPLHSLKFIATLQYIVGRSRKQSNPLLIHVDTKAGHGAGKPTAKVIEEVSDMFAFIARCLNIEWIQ
Platelet-activating factor acetylhydrolase 2, cytoplasmic (Mus musculus), sequence (Q8VDG7 whole entry, looked up): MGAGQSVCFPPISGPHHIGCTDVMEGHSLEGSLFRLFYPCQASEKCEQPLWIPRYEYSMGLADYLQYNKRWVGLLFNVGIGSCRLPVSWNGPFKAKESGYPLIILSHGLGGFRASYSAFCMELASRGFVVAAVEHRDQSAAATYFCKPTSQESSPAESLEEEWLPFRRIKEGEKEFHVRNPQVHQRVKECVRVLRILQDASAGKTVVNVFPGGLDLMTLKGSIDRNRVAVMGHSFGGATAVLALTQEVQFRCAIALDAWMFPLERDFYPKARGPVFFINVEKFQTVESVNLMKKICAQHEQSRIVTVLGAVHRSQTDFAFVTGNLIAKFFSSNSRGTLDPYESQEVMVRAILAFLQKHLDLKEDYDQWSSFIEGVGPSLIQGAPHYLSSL

COc1ccccc1-c1ccc(-c2cn(C(=O)N3CCCCC3Cc3ccccc3)nn2)cc1 (stereo unspecified)
SILAC ratio (treated/control probe labeling) [1]: 0.99 (inactive)
SILAC ratio (treated/control probe labeling) [2]: 1.47 (inactive)
SILAC ratio (treated/control probe labeling) [3]: 1.1 (inactive)
SILAC ratio (treated/control probe labeling) [4]: 1.33 (inactive)
SILAC ratio (treated/control probe labeling) [5]: 0.11
SILAC ratio (treated/control probe labeling) [6]: 1.03 (inactive)
SILAC ratio (treated/control probe labeling) [7]: 0.94 (inactive)
SILAC ratio (treated/control probe labeling) [8]: 1.07 (inactive)
SILAC ratio (treated/control probe labeling) [9]: 1.38 (inactive)
SILAC ratio (treated/control probe labeling) [10]: 1.32 (inactive)
SILAC ratio (treated/control probe labeling) [11]: 1.43 (inactive)
SILAC ratio (treated/control probe labeling) [12]: 0.99 (inactive)
SILAC ratio (treated/control probe labeling) [13]: 0.97 (inactive)
SILAC ratio (treated/control probe labeling) [14]: 1.06 (inactive)
SILAC ratio (treated/control probe labeling) [15]: 1.46 (inactive)
SILAC ratio (treated/control probe labeling) [16]: 1.17 (inactive)
SILAC ratio (treated/control probe labeling) [17]: 0.17
SILAC ratio (treated/control probe labeling) [18]: 1.37 (inactive)
SILAC ratio (treated/control probe labeling) [19]: 1.19 (inactive)
SILAC ratio (treated/control probe labeling) [20]: 1.2 (inactive)
SILAC ratio (treated/control probe labeling) [21]: 1.02 (inactive)
SILAC ratio (treated/control probe labeling) [22]: 1.12 (inactive)
SILAC ratio (treated/control probe labeling) [23]: 1.41 (inactive)
SILAC ratio (treated/control probe labeling) [24]: 2.04 (inactive)
SILAC ratio (treated/control probe labeling) [25]: 1.06 (inactive)
SILAC ratio (treated/control probe labeling) [26]: 1.15 (inactive)
SILAC ratio (treated/control probe labeling) [27]: 1.39 (inactive)
SILAC ratio (treated/control probe labeling) [28]: 1.08 (inactive)
SILAC ratio (treated/control probe labeling) [29]: 1.26 (inactive)
SILAC ratio (treated/control probe labeling) [30]: 1.86 (inactive)
SILAC ratio (treated/control probe labeling) [31]: 0.98 (inactive)
SILAC ratio (treated/control probe labeling) [32]: 1 (inactive)
SILAC ratio (treated/control probe labeling) [33]: 1.45 (inactive)
SILAC ratio (treated/control probe labeling) [34]: 1 (inactive)
SILAC ratio (treated/control probe labeling) [35]: 0.96 (inactive)
SILAC ratio (treated/control probe labeling) [36]: 1.13 (inactive)
SILAC ratio (treated/control probe labeling) [37]: 1.01 (inactive)
SILAC ratio (treated/control probe labeling) [38]: 0.97 (inactive)
SILAC ratio (treated/control probe labeling) [39]: 0.93 (inactive)
SILAC ratio (treated/control probe labeling) [40]: 1.36 (inactive)
SILAC ratio (treated/control probe labeling) [41]: 0.83 (inactive)
SILAC ratio (treated/control probe labeling) [42]: 1.16 (inactive)
SILAC ratio (treated/control probe labeling) [43]: 1.22 (inactive)
SILAC ratio (treated/control probe labeling) [44]: 1.19 (inactive)
SILAC ratio (treated/control probe labeling) [45]: 1.5 (inactive)
SILAC ratio (treated/control probe labeling) [46]: 1.33 (inactive)
